This test addresses T1, AIM2 inflammasome (Mus musculus, UniProt Q91VJ1).
T1 construct: host or cells: mouse BMDMs, LPS + transfected poly(dA:dT)
T1 sequence (Q91VJ1 1-354): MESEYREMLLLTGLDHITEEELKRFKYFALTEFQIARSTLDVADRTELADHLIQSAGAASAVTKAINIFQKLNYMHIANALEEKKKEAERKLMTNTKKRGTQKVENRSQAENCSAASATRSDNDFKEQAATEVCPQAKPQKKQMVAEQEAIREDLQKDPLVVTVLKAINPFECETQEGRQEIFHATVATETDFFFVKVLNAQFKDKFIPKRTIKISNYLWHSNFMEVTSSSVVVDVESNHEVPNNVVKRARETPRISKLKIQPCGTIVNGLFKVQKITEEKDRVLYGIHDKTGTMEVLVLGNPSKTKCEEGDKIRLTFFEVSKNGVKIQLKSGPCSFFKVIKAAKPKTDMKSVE
Kind of test: IL-1β production in mouse BMDMs after AIM2 activation (LPS + poly(dA:dT)). The test is classed as cell-based. To be noted: mBMDMs, concentrations up to 10 µM. As for the experimental part: Cell viability was determined by addition of an equal volume of CellTiter-Glo® 2.0 reagent (Promega) to the remaining cells/supernatant in each well. Intracellular Caspase-1 activity was measured using the Caspase-Glo® assay (Promega) according to the manufacturer’s instructions. The biochemical capsase-1 assay was conducted at Reaction Biology Corporation (Malvern, USA). Human IL-1β, IL-1α, and TNFα and mouse IL-1β were measured in cell culture supernatants using homogeneous time resolved fluorescence assay kits (HTRF, Cisbio, Codolet, France). Human IL-18 was measured in cell culture supernatants using an ELISA kit (R&D Systems, Minneapolis, MN, USA). Plasma IL-1β concentrations were determined by Quantikine® ELISA (R&D Systems, Minneapolis, MN).
4H). MS: m/z 433.1 (M+H+). […]
flagellin, prepared in Opt iMEM and combined with Lipofectamine 2000. […] After priming Nlrp3 -/- mBMDMs with 100 ng/mL of LPS for 3- 5 h, cells were exposed to 100 ng/mL L18- MDP and incubated overnight.At the end of the incubation period of the assays above, plates were briefly centri fuged and hal f of the cell culture supern atant remo ved and either analysed i mmediately or stored at - 80°C for subs equent cytokine […]

Each structure is given as a SMILES string.

With `CO[C@@H]1COc2c(S(=O)(=O)NC(=O)Nc3c4c(cc5c3CCC5)CCC4)cnn2C1` [JT002], the “inhibition of IL-1β production after AIM2 activation” value is listed as “no inhibition of IL-1β production”.

The values above are taken from PMC10439952, “JT002, a small molecule inhibitor of the NLRP3 inflammasome for the treatment of autoinflammatory disorders” (Scientific Reports, 2023).
